Measured values published in patent publication US9951039B2, “Pyrimidines for treatment of bacterial infections” (The Hong Kong Polytechnic University, priority 2016, dated 2018).
Values after ≈ are worked out from the molar mass of the structure shown.

Columns and labels:
[1] = test system: S. aureus ATCC BAA-1717 (methicillin resistant); assay: MIC against clinically isolated strain 2; assay type: cell-based; settings: Staphylococcus aureus, ATCCBAA1717
Method: (§1) Procedure of Antimicrobial susceptibility test: The MIC value of compounds was measured in the antimicrobial susceptibility test using the broth microdilution procedure in accordance with the CLSI guidelines.^21 Cation-adjusted Mueller Hinton broth (CA-MHB) was used for all the S. aureus strains in the assay. Cells in exponential phase of growth were diluted to approximately 5×10^5 cfu/mL. Stock solutions of each compound were freshly dissolved in dimethyl sulfoxide (DMSO). Then, serial dilutions of each compound in CA-MHB medium were added into 96-well microplate. The final percentage of DMSO in the assay was 1%. Control experiments were performed with 1% DMSO instead of the compound solution. After being incubated at 37° C. for 18 h, OD600 value of cells was measured on a microplate reader and the percentage of bacterial cell inhibition with respect to controls was calculated. The MIC value was defined as the lowest compound concentration at which the growth of bacteria was inhibited by ≥90%. Three independent assays were performed for each compound.
(§2) Results: Three compounds, namely 14av_amine16, 14dv_amine16 and 14dv_amine06, were selected to be tested against nine in-house clinically isolated bacterial strains including S. aureus ATCC29247, which is an ampicillin resistant strain, S. aureus ATCC BAA-41, ATCC BAA-1717, ATCC BAA-1720, ATCC 43300 which are methicillin resistant strains and four USA300 strains, (#417, #757, #1799 and #2690), which are the predominant strain type of community-associated MRSA strains in the United States.

S. aureus FtsZ [2] = molecular target: T1, S. aureus FtsZ (Staphylococcus aureus, UniProt P0A031); assay: Saturation Transfer Difference (STD) NMR study; assay type: binding; settings: 298K, line broadening and STD effect
T1 construct: 6-histidine tag; made in house; host or cells: E. coli BL21(DE3)
T1 sequence (P0A031 1-390): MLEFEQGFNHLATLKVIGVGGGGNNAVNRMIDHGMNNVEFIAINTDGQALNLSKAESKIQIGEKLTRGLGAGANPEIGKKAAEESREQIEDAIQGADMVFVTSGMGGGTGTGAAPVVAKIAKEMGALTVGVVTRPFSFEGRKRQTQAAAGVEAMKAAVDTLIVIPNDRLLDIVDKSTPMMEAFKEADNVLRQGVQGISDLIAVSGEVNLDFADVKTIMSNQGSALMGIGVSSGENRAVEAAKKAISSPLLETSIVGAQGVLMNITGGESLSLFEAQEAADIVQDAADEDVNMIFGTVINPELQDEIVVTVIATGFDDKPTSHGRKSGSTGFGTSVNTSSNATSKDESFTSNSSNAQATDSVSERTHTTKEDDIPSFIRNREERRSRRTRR
Method: (§3) Procedure for expression and purification of S. aureus FtsZ protein: S. aureus FtsZ protein was prepared as previous reported.^16a In brief, E. coli BL21(DE3) cells, transformed with a pRSET-A-S vector carrying S. aureus FtsZ with a 6-histidine tag attached, were streaked on a nutrient agar plate containing 50 μg/mL ampicillin. After overnight incubation at 37° C., a single colony was inoculated into 5 mL of Luria-Bertani (LB) medium in the presence of 50 μg/mL ampicillin, which was then incubated at 37° C., with shaking at 250 rpm for 16 h. […]
Procedure STD NMR study: STD NMR experiments were performed on a Bruker Avance III 600 NMR spectrometer equipped with a QCI cryoprobe at 298K. Spectra were recorded with a carrier set at 0.5 ppm for on-resonance irradiation and 30 ppm for off-resonance irradiation. Control spectra were recorded under identical conditions without compound to test for artifacts. Selective protein saturation was accomplished using a train of 40 Gauss-shaped pulses (50 ms with 1 ms delay between pulses) for a total saturation time of 2 s at an experimentally determined optimal power (7.7625 W on the probe); a T1p spinlock filter (20-50 ms) was incorporated to suppress protein resonances. STD spectra were recorded using a minimum of 128 scans and 32 k points covering a spectral width of 6600 Hz. […]

S. aureus FtsZ [3] = molecular target: T1, S. aureus FtsZ; assay: GTPase hydrolysis assay (CytoPhos phosphate assay); assay type: biochemical
Method: as §3, with “h. The overnight culture was transferred into a fresh 2×TY medium in a dilution ratio of 1:100 and 50 μg/mL ampicillin was then added, followed by incubation at 37° C. with shaking at 250 rpm. When OD600 reached 0.8, protein expression was induced with 0.4 mM isopropyl-β-D-thiogalactopyranoside (IPTG) for 4 h. Cells were harvested by centrifugation at 9000 rpm for 20 min at 4° C.” for “h.”
Procedure: The inhibitory effect of compound 14av_amine16 on GTPase hydrolysis activity was investigated according to the protocol described previously.^18 The GTPase activity of S. aureus FtsZ was estimated in a 96-well microplate using a CytoPhos phosphate assay Biochem Kit based on the manufacturer's instructions. […] The precipitated inorganic phosphate was quantified by measuring the absorbance at 650 nm in a microplate reader. […]

[4] = test system: USA300 #757 (community-associated MRSA); assay: MIC against clinically isolated strain 7; assay type: cell-based, S. aureus; settings: Staphylococcus aureus
Method: as §1, §2

**Q.** Which MIC [1] does the source give for `CCC(CC)c1cc(CCN2CCCN(Cc3ccc(C(F)(F)F)cc3)CC2)nc(-c2ccncc2)n1` [Compound 14av_amine16, 1-(2-(6-(pentan-3-yl)-2-(pyridin-4-yl)pyrimidin-4-yl)ethyl)-4-(4-(trifluoromethyl)benzyl)-1,4-diazepane] here?
**A.** 8 µM (≈ 4.09 µg/mL)

**Q.** And the “binding to FtsZ protein by STD NMR” value (S. aureus FtsZ [2])?
**A.** indeed bind to FtsZ protein

**Q.** What about the inhibition at 50 µM (S. aureus FtsZ [3]; compound at 50 μM) of the same molecule?
**A.** ~20%

**Q.** What about the inhibition at 75 µM (S. aureus FtsZ [3]; compound at 75 μM) of the same molecule?
**A.** ~25%

**Q.** What about the MIC [4] of the same molecule?
**A.** 12 µM (≈ 6.14 µg/mL)
